The values below come from patent US12180193B2, “Accelerating fibrosarcoma protein degrading compounds and associated methods of use” (Arvinas Operations, Inc., priority 2020, dated 2024).

In one assay the target is T1, BRAF G466V (Homo sapiens, UniProt P15056, G466V).
T1 construct: expressed in transfected cells
Description: Cellular assay of target protein degradation, T-Rex 293 cells stably transfected with HA-BRAF G466V (HA immunofluorescence, high content imaging). The note with it: T-Rex 293 HA-BRAF G466V; for DC50: half maximal degradation, read-out: BRaf G466V DC50; for Dmax: maximum degradation observed. In kind it is cell-based. Put shortly:
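HA-BRAF G466V levels were read by HA immunofluorescence and high-content imaging after 24 h compound exposure (final 30 nM–3 pM, 0.1% DMSO, 37 °C). Expression was induced with 0.75 ng/mL doxycycline. Outputs: half-maximal degradation concentration (DC50) and maximal degradation (Dmax) relative to control.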

The target in another assay is T2, BRAF V600E (Homo sapiens, UniProt P15056, V600E).
T2 construct: expressed in transfected cells
T2 sequence (P15056 whole entry V600E): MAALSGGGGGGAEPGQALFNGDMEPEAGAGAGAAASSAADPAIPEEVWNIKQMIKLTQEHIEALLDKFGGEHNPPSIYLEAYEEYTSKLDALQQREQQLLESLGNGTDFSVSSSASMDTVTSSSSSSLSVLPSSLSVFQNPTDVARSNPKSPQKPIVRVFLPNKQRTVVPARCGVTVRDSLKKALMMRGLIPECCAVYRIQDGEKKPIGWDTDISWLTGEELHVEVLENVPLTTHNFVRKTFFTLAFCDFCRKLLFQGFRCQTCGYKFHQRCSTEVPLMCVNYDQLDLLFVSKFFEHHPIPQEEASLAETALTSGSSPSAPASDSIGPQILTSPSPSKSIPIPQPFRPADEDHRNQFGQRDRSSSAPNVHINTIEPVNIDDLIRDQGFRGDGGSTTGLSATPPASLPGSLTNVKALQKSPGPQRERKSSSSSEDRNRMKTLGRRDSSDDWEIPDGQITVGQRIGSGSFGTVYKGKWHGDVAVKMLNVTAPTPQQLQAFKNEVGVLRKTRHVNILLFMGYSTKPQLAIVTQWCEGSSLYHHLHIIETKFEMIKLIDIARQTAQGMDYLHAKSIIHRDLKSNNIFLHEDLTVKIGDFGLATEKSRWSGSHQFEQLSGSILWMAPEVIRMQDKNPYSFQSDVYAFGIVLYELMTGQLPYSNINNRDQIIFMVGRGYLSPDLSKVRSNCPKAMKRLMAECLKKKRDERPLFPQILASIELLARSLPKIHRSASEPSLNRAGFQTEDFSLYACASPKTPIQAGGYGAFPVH
Description: Cellular assay of target protein degradation, T-Rex 293 cells stably transfected with HA-BRAF_V600E (HA immunofluorescence, high content imaging). It counts as cell-based. To be noted: T-Rex 293 HA-BRAF V600E; for DC50: half maximal degradation, read-out: BRaf V600E DC50; for Dmax: maximum degradation observed. Put shortly:
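HA immunofluorescence on fixed cells, imaged by high-content reader, measured loss of HA-BRAF V600E in stably transfected T-Rex 293 cells induced with 1 ng/mL doxycycline. Compounds were applied for 24 h at 37 °C (final 0.1 nM–1 μM, 0.1% DMSO); DC50 and Dmax (% of control) were reported.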

As a reminder, the DC50 is the midpoint of the concentration-degradation curve. One may read the Dmax as the largest share of the target that was removed. Low readings indicate shallow degradation, high ones deep degradation.

T1 sequence (P15056 whole entry G466V): as the sequence (P15056 whole entry V600E) above, with G466V, E600V counted along it

Consider `C[C@@H]1C[C@H](CN2CCC(c3ccc4c(c3)CN([C@H]3CCC(=O)NC3=O)C4=O)CC2)CCN1c1ccc(-c2cnc3[nH]cc(C(=O)c4c(F)ccc(NS(=O)(=O)N5CC[C@@H](F)C5)c4F)c3c2)cc1` [Compound 241, (3R)-N-[3-(5-{4-[(2R,4R)-4-[(4-{2-[(3S)-2,6-dioxopiperidin-3-yl]-1-oxo-2,3-dihydro-1H-isoindol-5-yl}piperidin-1-yl)methyl]-2-methylpiperidin-1-yl]phenyl}-1H-pyrrolo[2,3-b]pyridine-3-carbonyl)-2,4-difluorophenyl]-3-fluoropyrrolidine-1-sulfonamide], for which, at BRAF G466V, the DC50 was 1 to 10 nM and the Dmax was over 70%. At BRAF V600E, the DC50 lay in the range of 5 to 50 nM and the Dmax lay in the range of 35 to 70%.
In the case of `C[C@@H]1C[C@H](CN2CCC(c3ccc4c(c3)CN([C@@H]3CCC(=O)NC3=O)C4=O)CC2)CCN1c1ccc(-c2cnc3[nH]cc(C(=O)c4c(F)ccc(NS(=O)(=O)N5CC[C@@H](F)C5)c4F)c3c2)cc1` [Compound 242, (3R)-N-[3-(5-{4-[(2R,4R)-4-[(4-{2-[(3R)-2,6-dioxopiperidin-3-yl]-1-oxo-2,3-dihydro-1H-isoindol-5-yl}piperidin-1-yl)methyl]-2-methylpiperidin-1-yl]phenyl}-1H-pyrrolo[2,3-b]pyridine-3-carbonyl)-2,4-difluorophenyl]-3-fluoropyrrolidine-1-sulfonamide], the DC50 at BRAF G466V was in the range of 1 to 10 nM; at BRAF V600E, 5 to 50 nM. Moreover, the figures for the Dmax on BRAF G466V and on BRAF V600E were over 70% and 35 to 70%, respectively.
As to `CCCS(=O)(=O)Nc1ccc(F)c(C(=O)c2c[nH]c3ncc(-c4ccc(N5CCN(CC6CCN(c7ccc8c(c7)CN([C@H]7CCC(=O)NC7=O)C8=O)CC6)CC5)cc4)cc23)c1F` [Compound 243, N-{3-[5-(4-{4-[(1-{2-[(3S)-2,6-dioxopiperidin-3-yl]-1-oxo-2,3-dihydro-1H-isoindol-5-yl}piperidin-4-yl)methyl]piperazin-1-yl}phenyl)-1H-pyrrolo[2,3-b]pyridine-3-carbonyl]-2,4-difluorophenyl}propane-1-sulfonamide], the figures for the DC50 on BRAF G466V and on BRAF V600E were 1 to 10 nM and 5 to 50 nM, respectively. Moreover, the Dmax is over 70% on BRAF G466V and 35 to 70% on BRAF V600E.
Take `CCCS(=O)(=O)Nc1ccc(F)c(C(=O)c2c[nH]c3ncc(-c4ccc(N5CCN(CC6CCN(c7ccc8c(c7)CN(C7CCC(=O)NC7=O)C8=O)CC6)CC5)cc4)cc23)c1F` (stereo not shown) [Compound 244, N-[3-(5-{4-[4-({1-[2-(2,6-dioxopiperidin-3-yl)-1-oxo-2,3-dihydro-1H-isoindol-5-yl]piperidin-4-yl}methyl)piperazin-1-yl]phenyl}-1H-pyrrolo[2,3-b]pyridine-3-carbonyl)-2,4-difluorophenyl]propane-1-sulfonamide]: on BRAF G466V, the DC50 lay in the range of 1 to 10 nM and the Dmax is over 70%. On BRAF V600E, the DC50 was 5 to 50 nM and the Dmax was 35 to 70%.
Turning to `CCCS(=O)(=O)Nc1ccc(F)c(C(=O)c2c[nH]c3ncc(-c4ccc(N5CCC(CN6CCN(c7ccc8c(c7)CN([C@H]7CCC(=O)NC7=O)C8=O)CC6)CC5)cc4)cc23)c1F` [Compound 245, N-{3-[5-(4-{4-[(4-{2-[(3S)-2,6-dioxopiperidin-3-yl]-1-oxo-2,3-dihydro-1H-isoindol-5-yl}piperazin-1-yl)methyl]piperidin-1-yl}phenyl)-1H-pyrrolo[2,3-b]pyridine-3-carbonyl]-2,4-difluorophenyl}propane-1-sulfonamide], the DC50 at BRAF G466V was 1 to 10 nM; on BRAF V600E it was 5 to 50 nM. In addition, the Dmax is over 70% on BRAF G466V and 35 to 70% at BRAF V600E.
Take `O=C1CCC(N2Cc3cc(N4CC5(CN(CC6CCN(c7ccc(-c8cnc9[nH]cc(C(=O)c%10c(F)ccc(NS(=O)(=O)N%11CCC(F)(F)C%11)c%10F)c9c8)cc7)CC6)C5)C4)ccc3C2=O)C(=O)N1` (stereo not shown) [Compound 246, N-[3-(5-{4-[4-({6-[2-(2,6-dioxopiperidin-3-yl)-1-oxo-2,3-dihydro-1H-isoindol-5-yl]-2,6-diazaspiro[3.3]heptan-2-yl}methyl)piperidin-1-yl]phenyl}-1H-pyrrolo [2,3-b]pyridine-3-carbonyl)-2,4-difluorophenyl]-3,3-difluoropyrrolidine-1-sulfonamide]: on BRAF G466V, the DC50 was 1 to 10 nM and the Dmax is over 70%. Further, on BRAF V600E, the DC50 lay in the range of 5 to 50 nM and the Dmax fell in the range of 35 to 70%.
For `COc1cc(N2CCC(CN3CC4(C3)CN(c3ccc(-c5cnc6[nH]cc(C(=O)c7c(F)ccc(NS(=O)(=O)N8CCC(F)(F)C8)c7F)c6c5)cc3)C4)CC2)cc2c1C(=O)N(C1CCC(=O)NC1=O)C2` (stereo not shown) [Compound 247, N-[3-(5-{4-[6-({1-[2-(2,6-dioxopiperidin-3-yl)-7-methoxy-1-oxo-2,3-dihydro-1H-isoindol-5-yl]piperidin-4-yl}methyl)-2,6-diazaspiro[3.3]heptan-2-yl]phenyl}-1H-pyrrolo[2,3-b]pyridine-3-carbonyl)-2,4-difluorophenyl]-3,3-difluoropyrrolidine-1-sulfonamide], on BRAF G466V, the DC50 fell in the range of 1 to 10 nM and the Dmax was over 70%. In addition, on BRAF V600E, the DC50 was 5 to 50 nM and the Dmax was under 35%.
The matching figures for `O=C1CCC(N2Cc3cc(CCCN4CC5(C4)CN(c4ccc(-c6cnc7[nH]cc(C(=O)c8c(F)ccc(NS(=O)(=O)N9CCC(F)(F)C9)c8F)c7c6)cc4)C5)ccc3C2=O)C(=O)N1` (stereo not shown) [Compound 248, N-(3-{5-[4-(6-{3-[2-(2,6-dioxopiperidin-3-yl)-1-oxo-2,3-dihydro-1H-isoindol-5-yl]propyl}-2,6-diazaspiro[3.3]heptan-2-yl)phenyl]-1H-pyrrolo[2,3-b]pyridine-3-carbonyl}-2,4-difluorophenyl)-3,3-difluoropyrrolidine-1-sulfonamide]: 1 to 10 nM, over 70%, 5 to 50 nM and 35 to 70%.
The matching figures for `COc1cc(N2CC3(CN(CC4CCN(c5ccc(-c6cnc7[nH]cc(C(=O)c8c(F)ccc(NS(=O)(=O)N9CC[C@@H](F)C9)c8F)c7c6)cc5)CC4)C3)C2)cc2c1C(=O)N([C@H]1CCC(=O)NC1=O)C2` [Compound 249, (3R)-N-{3-[5-(4-{4-[(6-{2-[(3S)-2,6-dioxopiperidin-3-yl]-7-methoxy-1-oxo-2,3-dihydro-1H-isoindol-5-yl}-2,6-diazaspiro[3.3]heptan-2-yl)methyl]piperidin-1-yl}phenyl)-1H-pyrrolo [2,3-b]pyridine-3-carbonyl]-2,4-difluorophenyl}-3-fluoropyrrolidine-1-sulfonamide]: 1 to 10 nM, over 70%, 5 to 50 nM and 35 to 70%.
The matching figures for `COc1cc(N2CC3(CN(CC4CCN(c5ccc(-c6cnc7[nH]cc(C(=O)c8c(F)ccc(NS(=O)(=O)N9CC[C@@H](F)C9)c8F)c7c6)cc5)CC4)C3)C2)cc2c1C(=O)N([C@@H]1CCC(=O)NC1=O)C2` [Compound 250, (3R)-N-{3-[5-(4-{4-[(6-{2-[(3R)-2,6-dioxopiperidin-3-yl]-7-methoxy-1-oxo-2,3-dihydro-1H-isoindol-5-yl}-2,6-diazaspiro[3.3]heptan-2-yl)methyl]piperidin-1-yl}phenyl)-1H-pyrrolo [2,3-b]pyridine-3-carbonyl]-2,4-difluorophenyl}-3-fluoropyrrolidine-1-sulfonamide]: 1 to 10 nM, over 70%, 5 to 50 nM and under 35%.
For the compound `O=C1CCC(N2Cc3cc(OCCCCN4CCN(c5ccc(-c6cnc7[nH]cc(C(=O)c8c(F)ccc(NS(=O)(=O)N9CCC(F)(F)C9)c8F)c7c6)cc5)CC4)ccc3C2=O)C(=O)N1` (stereo not shown) [Compound 251, N-[3-(5-{4-[4-(4-{[2-(2,6-dioxopiperidin-3-yl)-1-oxo-2,3-dihydro-1H-isoindol-5-yl]oxy}butyl)piperazin-1-yl]phenyl}-1H-pyrrolo[2,3-b]pyridine-3-carbonyl)-2,4-difluorophenyl]-3,3-difluoropyrrolidine-1-sulfonamide], on BRAF G466V, the DC50 lay within 1 to 10 nM and the Dmax lay in the range of 35 to 70%. Moreover, on BRAF V600E, the DC50 is 5 to 50 nM and the Dmax was 35 to 70%.
Regarding `O=C1CC[C@H](N2Cc3cc(C4CCN(CC5CCN(c6ccc(-c7cnc8[nH]cc(C(=O)c9c(F)ccc(NS(=O)(=O)N%10CC[C@@H](F)C%10)c9Cl)c8c7)cc6)CC5)CC4)ccc3C2=O)C(=O)N1` [Compound 252, (3R)-N-{2-chloro-3-[5-(4-{4-[(4-{2-[(3S)-2,6-dioxopiperidin-3-yl]-1-oxo-2,3-dihydro-1H-isoindol-5-yl}piperidin-1-yl)methyl]piperidin-1-yl}phenyl)-1H-pyrrolo [2,3-b]pyridine-3-carbonyl]-4-fluorophenyl}-3-fluoropyrrolidine-1-sulfonamide], the results for the DC50 at BRAF G466V and at BRAF V600E were under 1 nM and 5 to 50 nM, respectively. Moreover, the Dmax at BRAF G466V and on BRAF V600E was 35 to 70% each time.
For the compound `Cc1c(NS(=O)(=O)N2CC[C@@H](F)C2)ccc(F)c1C(=O)c1c[nH]c2ncc(-c3ccc(N4CCC(CN5CCC(c6ccc7c(c6)CN([C@H]6CCC(=O)NC6=O)C7=O)CC5)CC4)cc3)cc12` [Compound 253, (3R)-N-{3-[5-(4-{4-[(4-{2-[(3S)-2,6-dioxopiperidin-3-yl]-1-oxo-2,3-dihydro-1H-isoindol-5-yl}piperidin-1-yl)methyl]piperidin-1-yl}phenyl)-1H-pyrrolo [2,3-b]pyridine-3-carbonyl]-4-fluoro-2-methylphenyl}-3-fluoropyrrolidine-1-sulfonamide], on BRAF G466V, the DC50 is 1 to 10 nM and the Dmax fell in the range of 35 to 70%. Further, on BRAF V600E, the DC50 was in the range of 5 to 50 nM and the Dmax was 35 to 70%.
